The source of these data is US7084146B2 (dated 2006).

One may read the melting point as the temperature of the solid-liquid transition. The compound `O=[N+]([O-])c1ccc(-c2c(Cl)nc3ncnn3c2NCC(F)(F)F)cc1` gave a melting point of 237 °C.
